This note sets out measurements from patent US9131694B2, “Insecticidal pyridine compounds” (Dow AgroSciences, LLC, priority 2009, dated 2015).

The test system of assay [1] is Green Peach Aphid (Myzus persicae). Briefly: Insecticidal test for green peach aphid in foliar spray assay on cabbage seedlings. The settings on record: 200 ppm foliar spray on infested cabbage seedlings, graded after three days. It is filed as in vivo. The procedure:
Insecticidal Test for Green Peach Aphid (Myzus persicae) in Foliar Spray Assay Cabbage seedlings grown in 3-inch pots, with 2-3 small (3-5 cm) true leaves, were used as test substrate. The seedlings were infested with 20-50 green peach aphids (wingless adult and nymph) 1-2 days prior to chemical application. Four seedlings were used for each treatment. Selected compounds (2 mg), many of which are described above, were dissolved in 2 ml of acetone:methanol (1:1) solvent, forming stock solutions of 1000 ppm. The stock solutions were diluted 5× with 0.025% Tween 20 in H2O to obtain a solution at 200 ppm. A hand-held Devilbiss aspirator sprayer was used for spraying a solution to both sides of cabbage leaves until runoff. Reference plants (solvent check) were sprayed with the diluent only. Treated plants were held in a holding room for three days at approximately 23° C. and 40% relative humidity prior to grading. Evaluation was conducted by counting the number of live aphids per plant under a microscope. Insecticidal activity was measured by using Abbott's correction formula: Corrected % Control=100*(X−Y)/X • where • X=No. of live aphids on solvent check plants • Y=No. of live aphids on treated plants The results of this test are set forth in the column labelled “Green Peach Aphid” in Table 1 below, in which letter designations represent ranges of percent control as follows: • A=80-100% control • B=60-79% control • C=40-59% control • D=20-39% control • E=0-19% control

The test system of assay [2] is Beet Armyworm (Spodoptera exigua). The assay can be described thus: Insecticidal test for beet armyworm, treated lepidopteran diet. It is filed as in vivo. The conditions noted are these: 2000 ppm test solution, 50 μL per well on diet (50 g/cm^2 dose), second-instar larvae, observed 2 and 5 days after treatment. The procedure: Insecticidal Test for Beet Armyworm (Spodoptera exigua). To prepare test solution, the test compound was formulated at 2000 ppm solution in 2 mL of 9 acetone: 1 tap water. 50 μL of the test solution ([…] dose for each well) was pipetted upon the surface of 1 mL of lepidopteran diet (Southland Multi-Species Lepidopteran Diet) contained in each of eight wells per insect species (one well=1 replication). A second-instar beet armyworm was placed upon the treated diet in each well (one insect per well) once the solvent had air-dried. Trays containing the treated diet and larvae were covered and then held in a growth chamber at 25° C., 50-55% RH, and 16 hr light:8 hr dark for 5 days. Observation were conducted 2 and 5 days after treatment and infestation to score the number of dead insects per 8-well treatment. The results of this test are set forth in the column labelled “Beet Armyworm” in Table 1 below, in which letter designations represent ranges of percent control as set forth above.

In the case of `FC(F)(F)c1cc(N2CCCC2c2ccccn2)nc(Cl)c1Cl` (stereo not drawn) [Compound 1, 6-[2-(2-Pyridyl)-1-pyrrolidinyl]-4-trifluoromethyl-2,3-dichloropyridine], the “Green Peach Aphid percent control (Abbott corrected % control)” value in assay [1] is listed as “A (A=80-100% control)”. Besides, the “Beet Armyworm percent control” value in assay [2] is given as “B (B=60-79% control)”.

Turning to `N#Cc1c(C(F)(F)F)cc(N2C(c3ccccc3)COC2c2ccccn2)nc1Cl` (stereo not drawn) [Compound 18, 2-chloro-6-[4-phenyl-2-(2-pyridyl)oxazolidin-3-yl]-4-(trifluoromethyl)pyridine-3-carbonitrile], in assay [1], the “Green Peach Aphid percent control (Abbott corrected % control)” value is “E (E=0-19% control)”. Besides, the “Beet Armyworm percent control” value in assay [2] is reported as “E (E=0-19% control)”.

`FC(F)(F)c1cc(-n2c(-c3ccccn3)nc3ccccc32)nc(Cl)c1Cl`: the “Green Peach Aphid percent control (Abbott corrected % control)” value in assay [1] is reported as “D (D=20-39% control)”. In addition, in assay [2], the “Beet Armyworm percent control” value is “D (D=20-39% control)”.

As to `FC(F)(F)c1cc(N2CCCC2c2ccccn2)ncc1Cl` (stereo not drawn), the “Green Peach Aphid percent control (Abbott corrected % control)” value in assay [1] is “E (E=0-19% control)”. Also, the “Beet Armyworm percent control” value in assay [2] is on record as “D (D=20-39% control)”.

Regarding `C[Si](C)(C)c1c(C(F)(F)F)cc(N2CCCC2c2ccccn2)nc1Cl` (stereo not drawn) [Compound 10], in assay [1], the “Green Peach Aphid percent control (Abbott corrected % control)” value is “E (E=0-19% control)”. Further, the “Beet Armyworm percent control” value in assay [2] is “E (E=0-19% control)”.

On to `FC(F)(F)c1cc(N2CCCC2c2ccccn2)nc(Cl)c1Br` (stereo not drawn), for which the “Green Peach Aphid percent control (Abbott corrected % control)” value in assay [1] is recorded as “D (D=20-39% control)”. Besides, the “Beet Armyworm percent control” value in assay [2] is listed as “E (E=0-19% control)”.

In the case of `CC(C)C1COC(c2ccccn2)N1c1cc(C(F)(F)F)c(C#N)c(Cl)n1` (stereo not drawn) [Compound 12, 2-chloro-6-[4-isopropyl-2-(2-pyridyl)oxazolidin-3-yl]-4-(trifluoromethyl)pyridine-3-carbonitrile], the “Green Peach Aphid percent control (Abbott corrected % control)” value in assay [1] is on record as “D (D=20-39% control)”. Further, the “Beet Armyworm percent control” value in assay [2] was “E (E=0-19% control)”.

In the case of `FC(F)(F)c1cc(Cl)nc(N2CCCC2c2ccccn2)c1Cl` (stereo not drawn) [Compound 2, 6-[2-(2-pyridyl)-1-pyrrolidinyl]-4-trifluoromethyl-2,5-dichloropyridine], in assay [1], the “Green Peach Aphid percent control (Abbott corrected % control)” value was “C (C=40-59% control)”. Besides, the “Beet Armyworm percent control” value in assay [2] is listed as “B (B=60-79% control)”.

`FC(F)(F)c1cc(N2CCCCC2c2ccccn2)nc(Cl)c1Cl` (stereo not drawn) [Compound 6]: the “Green Peach Aphid percent control (Abbott corrected % control)” value in assay [1] was “D (D=20-39% control)”. Moreover, the “Beet Armyworm percent control” value in assay [2] is listed as “A (A=80-100% control)”.

Regarding `CC1COC(c2ccccn2)N1c1cc(C(F)(F)F)c(C#N)c(Cl)n1` (stereo not drawn) [Compound 16, 2-chloro-6-[4-methyl-2-(2-pyridyl)oxazolidin-3-yl]-4-(trifluoromethyl)pyridine-3-carbonitrile], the “Green Peach Aphid percent control (Abbott corrected % control)” value in assay [1] is given as “E (E=0-19% control)”. The “Beet Armyworm percent control” value in assay [2] is “E (E=0-19% control)”.

As to `FC(F)(F)c1c(Cl)cnc(N2CCCC2c2ccccn2)c1Cl` (stereo not drawn), the “Green Peach Aphid percent control (Abbott corrected % control)” value in assay [1] was “E (E=0-19% control)”. For the same compound, the “Beet Armyworm percent control” value in assay [2] was “B (B=60-79% control)”.

Turning to `CCC1CN(c2cc(C(F)(F)F)c(C#N)c(Cl)n2)C(c2ccccn2)O1` (stereo not drawn) [Compound 19, 2-Chloro-6-[5-ethyl-2-(2-pyridyl)oxazolidin-3-yl]-4-(trifluoromethyl)pyridine-3-carbonitrile], the “Green Peach Aphid percent control (Abbott corrected % control)” value in assay [1] is recorded as “C (C=40-59% control)”. Moreover, the “Beet Armyworm percent control” value in assay [2] is “C (C=40-59% control)”.
